Measured values from ChEMBL document CHEMBL1201862, “PubChem BioAssay data set” (2004).
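Dose response: 5 concentrations. Exposure: 48 h. Format: 96-well plates. Endpoint: linear interpolation; highest concentration if not reached. The concentration for 50% growth inhibition is given as GI50.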 The source made the active and inactive calls. No stated cut-off is given here; in the data, active = GI50 up to about 1.1 µM and inactive = higher.

What was measured:
Test in all cases: inhibition of tumour cell growth, NCI panel, 48 h
COLO 205 = tested on: COLO 205
HOP-62 = tested on: HOP-62
OVCAR-5 = tested on: OVCAR-5
SR = tested on: SR
SF-268 = tested on: SF-268
NCI-H226 = tested on: NCI-H226
RXF 393 = tested on: RXF 393
HCC 2998 = tested on: HCC 2998
A498 = tested on: A498
CCRF-CEM = tested on: CCRF-CEM
A549 = tested on: A549
IGROV-1 = tested on: IGROV-1
TK-10 = tested on: TK-10
BT-549 = tested on: BT-549
T47D = tested on: T47D
LOX IMVI = tested on: LOX IMVI
NCI-H460 = tested on: NCI-H460
HOP-92 = tested on: HOP-92
SNB-75 = tested on: SNB-75

SMILES	GI50 (COLO 205)	GI50 (HOP-62)	GI50 (OVCAR-5)	GI50 (SR)	GI50 (SF-268)	GI50 (NCI-H226)	GI50 (RXF 393)	GI50 (HCC 2998)	GI50 (A498)	GI50 (CCRF-CEM)	GI50 (A549)	GI50 (IGROV-1)	GI50 (TK-10)	GI50 (BT-549)	GI50 (T47D)	GI50 (LOX IMVI)	GI50 (NCI-H460)	GI50 (HOP-92)	GI50 (SNB-75)
CC(C)[C@H]1NC(=O)[C@H]2N=C(O[C@@H]2C)[C@@H]2CCCN2C(=O)[C@H](Cc2ccccc2)NC(=O)[C@@H]2CSC(=N2)[C@@H](Cc2ccccc2)NC(=O)[C@@H]2CSC1=N2	> 100 µM (inactive)	> 100 µM (inactive)	> 100 µM (inactive)	> 100 µM (inactive)	> 100 µM (inactive)	> 100 µM (inactive)	61.4 µM (inactive)	21.7 µM (inactive)	> 100 µM (inactive)	> 100 µM (inactive)	84.5 µM (inactive)	41.1 µM (inactive)	> 100 µM (inactive)	> 100 µM (inactive)	> 100 µM (inactive)	75.3 µM (inactive)	–	–	–
Cn1c(N=P(c2ccccc2)(c2ccccc2)c2ccccc2)c([N+](=O)[O-])c(=O)n(C)c1=O	44.5 µM (inactive)	48 µM (inactive)	> 100 µM (inactive)	–	78.7 µM (inactive)	> 100 µM (inactive)	> 100 µM (inactive)	71.8 µM (inactive)	59.7 µM (inactive)	20.2 µM (inactive)	40.6 µM (inactive)	48 µM (inactive)	67.9 µM (inactive)	38.5 µM (inactive)	33.7 µM (inactive)	35.9 µM (inactive)	43.4 µM (inactive)	> 100 µM (inactive)	25.5 µM (inactive)
N#Cc1c(N)nc(S)c(C#N)c1-c1ccccc1	–	> 100 µM (inactive)	> 100 µM (inactive)	> 100 µM (inactive)	> 100 µM (inactive)	> 100 µM (inactive)	> 100 µM (inactive)	> 100 µM (inactive)	> 100 µM (inactive)	> 100 µM (inactive)	> 100 µM (inactive)	> 100 µM (inactive)	> 100 µM (inactive)	54 µM (inactive)	> 100 µM (inactive)	> 100 µM (inactive)	> 100 µM (inactive)	–	58.3 µM (inactive)
Cc1cc(=O)oc2c(C)c3oc(CBr)cc3cc12	18.4 µM (inactive)	16.2 µM (inactive)	16.8 µM (inactive)	33 µM (inactive)	19.5 µM (inactive)	15.5 µM (inactive)	–	15.8 µM (inactive)	–	14.4 µM (inactive)	17.3 µM (inactive)	16.8 µM (inactive)	19.9 µM (inactive)	15.3 µM (inactive)	17.3 µM (inactive)	15.3 µM (inactive)	17.2 µM (inactive)	–	22.6 µM (inactive)
CN1CCN(CC(=O)N2CCCn3c2nc2ccccc2c3=O)CC1	> 100 µM (inactive)	> 100 µM (inactive)	> 100 µM (inactive)	> 100 µM (inactive)	> 100 µM (inactive)	52.1 µM (inactive)	–	> 100 µM (inactive)	> 100 µM (inactive)	> 100 µM (inactive)	> 100 µM (inactive)	> 100 µM (inactive)	> 100 µM (inactive)	> 100 µM (inactive)	> 100 µM (inactive)	> 100 µM (inactive)	> 100 µM (inactive)	48.2 µM (inactive)	> 100 µM (inactive)
CCOC(=O)C(NC(=O)c1ccco1)(Nc1nc2ccc(OCC)cc2s1)C(F)(F)F (stereo not drawn)	18.5 µM (inactive)	–	34.1 µM (inactive)	19.3 µM (inactive)	41.2 µM (inactive)	35.1 µM (inactive)	7.82 µM (inactive)	33.5 µM (inactive)	–	23.8 µM (inactive)	28.8 µM (inactive)	–	50.1 µM (inactive)	28.6 µM (inactive)	26.9 µM (inactive)	–	28.1 µM (inactive)	15 µM (inactive)	19.8 µM (inactive)
COc1ccc(Cn2c3c(cc(OC(C)=O)c2=O)Cc2ccccc2-3)cc1	20.6 µM (inactive)	14.9 µM (inactive)	18.7 µM (inactive)	2.14 µM (inactive)	7.82 µM (inactive)	14.3 µM (inactive)	8.36 µM (inactive)	3.33 µM (inactive)	–	2 µM (inactive)	13.9 µM (inactive)	7.82 µM (inactive)	13.1 µM (inactive)	11.2 µM (inactive)	14.6 µM (inactive)	6.12 µM (inactive)	3.97 µM (inactive)	9.98 µM (inactive)	11.7 µM (inactive)
O=c1c(C(c2ccc(OCc3ccccc3)cc2)c2c(O)oc3ccccc3c2=O)c(O)oc2ccccc12	46 µM (inactive)	47.5 µM (inactive)	75.2 µM (inactive)	–	29.4 µM (inactive)	30.7 µM (inactive)	> 100 µM (inactive)	35.1 µM (inactive)	83.2 µM (inactive)	38.2 µM (inactive)	40.9 µM (inactive)	77.4 µM (inactive)	62.1 µM (inactive)	24.9 µM (inactive)	81.1 µM (inactive)	34.2 µM (inactive)	35 µM (inactive)	36.2 µM (inactive)	18.6 µM (inactive)
C=C1CC(Cn2cc(Br)c(=O)[nH]c2=O)(c2ccc(Br)cc2)OC1=O (stereo not drawn)	1.53 µM (inactive)	14.5 µM (inactive)	6.38 µM (inactive)	1.52 µM (inactive)	13.6 µM (inactive)	13.4 µM (inactive)	–	3.48 µM (inactive)	1.22 µM (inactive)	0.614 µM (active)	14.8 µM (inactive)	1.89 µM (inactive)	7.23 µM (inactive)	2.37 µM (inactive)	2.03 µM (inactive)	1.58 µM (inactive)	14.1 µM (inactive)	1.33 µM (inactive)	13.2 µM (inactive)
S=C(N1CCN(c2cccc(Cl)c2)CC1)N1CCN(c2cccc(Cl)c2)CC1	22 µM (inactive)	36.8 µM (inactive)	44.1 µM (inactive)	13.4 µM (inactive)	39.9 µM (inactive)	22 µM (inactive)	36.6 µM (inactive)	17.5 µM (inactive)	–	5.71 µM (inactive)	68.1 µM (inactive)	42.6 µM (inactive)	43.4 µM (inactive)	75.3 µM (inactive)	16.9 µM (inactive)	–	–	–	–
CO[C@H]1SC[C@H](OC(C)=O)[C@H](OC(C)=O)[C@H]1OC(C)=O	> 100 µM (inactive)	> 100 µM (inactive)	–	> 100 µM (inactive)	> 100 µM (inactive)	> 100 µM (inactive)	–	> 100 µM (inactive)	–	> 100 µM (inactive)	> 100 µM (inactive)	> 100 µM (inactive)	> 100 µM (inactive)	> 100 µM (inactive)	> 100 µM (inactive)	> 100 µM (inactive)	> 100 µM (inactive)	–	–
COc1cc(C(=O)N(C(=S)OCc2ccccn2)c2ccccc2)cc(OC)c1OC	53.5 µM (inactive)	–	49.2 µM (inactive)	8.47 µM (inactive)	> 100 µM (inactive)	26.1 µM (inactive)	42.2 µM (inactive)	–	53.5 µM (inactive)	17.8 µM (inactive)	–	16.3 µM (inactive)	70.8 µM (inactive)	41 µM (inactive)	34.9 µM (inactive)	35 µM (inactive)	35.6 µM (inactive)	–	–
OCc1cccc(Nc2nc(O)c3[nH]cnc3n2)c1	> 100 µM (inactive)	> 100 µM (inactive)	> 100 µM (inactive)	> 100 µM (inactive)	> 100 µM (inactive)	> 100 µM (inactive)	> 100 µM (inactive)	> 100 µM (inactive)	–	> 100 µM (inactive)	> 100 µM (inactive)	> 100 µM (inactive)	> 100 µM (inactive)	> 100 µM (inactive)	> 100 µM (inactive)	> 100 µM (inactive)	–	> 100 µM (inactive)	> 100 µM (inactive)
O=C(Nc1cccc2cnccc12)c1cc2c(cc1Cl)Sc1nccn1S2(=O)=O	15.3 µM (inactive)	14 µM (inactive)	25.2 µM (inactive)	3.28 µM (inactive)	16.2 µM (inactive)	18.4 µM (inactive)	8.2 µM (inactive)	15.7 µM (inactive)	–	–	27.7 µM (inactive)	15.8 µM (inactive)	24.4 µM (inactive)	10.4 µM (inactive)	6 µM (inactive)	5.65 µM (inactive)	7.82 µM (inactive)	21.4 µM (inactive)	15.5 µM (inactive)
N#Cc1c(N2CCOCC2)ncn(-c2ccc(Cl)cc2)c1=O	> 100 µM (inactive)	> 100 µM (inactive)	> 100 µM (inactive)	> 100 µM (inactive)	–	> 100 µM (inactive)	–	> 100 µM (inactive)	> 100 µM (inactive)	> 100 µM (inactive)	> 100 µM (inactive)	> 100 µM (inactive)	–	> 100 µM (inactive)	> 100 µM (inactive)	> 100 µM (inactive)	> 100 µM (inactive)	> 100 µM (inactive)	> 100 µM (inactive)
CC(=O)O[C@H]1C(=O)[C@@]2(C)[C@H]([C@H](OC(=O)c3ccccc3)[C@@]3(O)C[C@H](O)C(C)=C1C3(C)C)[C@]1(OC(C)=O)CO[C@@H]1C[C@@H]2O	26.5 µM (inactive)	54 µM (inactive)	63.5 µM (inactive)	12.9 µM (inactive)	83.4 µM (inactive)	86.5 µM (inactive)	37.1 µM (inactive)	–	–	46.2 µM (inactive)	73.3 µM (inactive)	19.5 µM (inactive)	83.2 µM (inactive)	32.4 µM (inactive)	> 100 µM (inactive)	45.3 µM (inactive)	24.2 µM (inactive)	> 100 µM (inactive)	11.2 µM (inactive)
